Experimental data as given in patent US6034238A, “Heterocyclic compounds, their preparation and their use as leucocyte adhesion inhibitors and VLA-4-antagonists” (Hoechst Marion Roussel Deutschland GmbH, priority 1997, dated 2000).

Target: T1, interaction between VCAM-1 and VLA-4 (Homo sapiens, UniProt P05556+P13612)
T1 construct: supplied in their natural form as surface molecules on human U937 cells; host or cells: U937 (human)
Test: U937/VCAM-1 cell adhesion test (adhesion of U937 cells to hVCAM-1 (1-3)-IgG)
Type: cell-based
Details: read-out: IC50 (50% inhibition of adhesion)
Source text: The test method used for the activity of the compounds of the formula I on the interaction between VCAM-1 and VLA-4 is an assay which is specific for this interaction. The cellular binding components, i.e., the VLA4 integrins, are supplied in their natural form as surface molecules on human U937 cells (ATCC CRL 1593), which belong to the leucocytes group. The specific binding components used are genetically engineered recombinant soluble fusion proteins, consisting of the extracytoplasmatic domain of human VCAM-1 and the constant region of a human immunoglobulin of the subclass IgG1.
Assay for the measurement of the adhesion of U937 cells (ATCC CRL 1593) to hVCAM-1 (1-3)-IgG
1. Preparation of human VCAM-1(1-3)-IgG and human CD4-IgG
A genetic construct for the expression of the extracellular domain of human VCAM-1, associated with the genetic sequence of the heavy chain of human immunoglobulin IgG1 (hinge, CH2 and CH3 regions), from Dr. Brian Seed, Massachusetts General Hospital, Boston, USA (cf. Damle and Aruffo, Proc. NatI. Acad. Sci. USA 1991, 88, 6403-6407) was employed. The soluble fusion protein hVCAM-1 (1-3)-IgG contained the three amino-terminal extracellular immunoglobulin-like domains of human VCAM-1 (Damle and Aruffo, Proc. Natl. Acad. Sci. USA 1991, 88, 6403). CD4-IgG (Zeftimeissl et al., DNA and Cell Biology 1990, 9, 347) served as a fusion protein for negative controls. The recombinant proteins were expressed as soluble proteins after DEAE/dextran-mediated DNA transfection in COS cells (ATCC CRL1651) according to standard procedures (Ausubel et al., Current Protocols in Molecular Biology, John Wiley & Sons, Inc., 1994).
2. Assay for the measurement of the adhesion of U937 cells to hVCAM-1 (1-3)-IgG
2.1 96-well microtiter test plates (Nunc Maxisorb) were incubated at room temperature for 1 hour with 100 μl/well of a goat-anti-human-IgG antibody solution (10 μg/ml in 50 mM tris, pH 9.5). After removal of the antibody solution, washing was carried out once with PBS.
2.2 150 μl/well of a blocking buffer (1% BSA in PBS) was incubated on the plates at room temperature for 0.5 hour. After removal of the blocking buffer, washing was carried out once with PBS.
2.3 100 μl per well of a cell culture supernatant of transfected COS cells was incubated on the plates at room temperature for 1.5 hours. The COS cells were transfected with a plasmid which codes for the three N-terminal immunoglobulin-like domains of VCAM-1, coupled to the Fc part of human IgG1 (hVCAM-1(1--3)-IgG). The content of hVCAM-1 (1-3)-IgG was about 0.5-1 μg/ml. After removal of the culture supernatant washing was carried out once with PBS. […]

T1 sequence (P13612 34-1032): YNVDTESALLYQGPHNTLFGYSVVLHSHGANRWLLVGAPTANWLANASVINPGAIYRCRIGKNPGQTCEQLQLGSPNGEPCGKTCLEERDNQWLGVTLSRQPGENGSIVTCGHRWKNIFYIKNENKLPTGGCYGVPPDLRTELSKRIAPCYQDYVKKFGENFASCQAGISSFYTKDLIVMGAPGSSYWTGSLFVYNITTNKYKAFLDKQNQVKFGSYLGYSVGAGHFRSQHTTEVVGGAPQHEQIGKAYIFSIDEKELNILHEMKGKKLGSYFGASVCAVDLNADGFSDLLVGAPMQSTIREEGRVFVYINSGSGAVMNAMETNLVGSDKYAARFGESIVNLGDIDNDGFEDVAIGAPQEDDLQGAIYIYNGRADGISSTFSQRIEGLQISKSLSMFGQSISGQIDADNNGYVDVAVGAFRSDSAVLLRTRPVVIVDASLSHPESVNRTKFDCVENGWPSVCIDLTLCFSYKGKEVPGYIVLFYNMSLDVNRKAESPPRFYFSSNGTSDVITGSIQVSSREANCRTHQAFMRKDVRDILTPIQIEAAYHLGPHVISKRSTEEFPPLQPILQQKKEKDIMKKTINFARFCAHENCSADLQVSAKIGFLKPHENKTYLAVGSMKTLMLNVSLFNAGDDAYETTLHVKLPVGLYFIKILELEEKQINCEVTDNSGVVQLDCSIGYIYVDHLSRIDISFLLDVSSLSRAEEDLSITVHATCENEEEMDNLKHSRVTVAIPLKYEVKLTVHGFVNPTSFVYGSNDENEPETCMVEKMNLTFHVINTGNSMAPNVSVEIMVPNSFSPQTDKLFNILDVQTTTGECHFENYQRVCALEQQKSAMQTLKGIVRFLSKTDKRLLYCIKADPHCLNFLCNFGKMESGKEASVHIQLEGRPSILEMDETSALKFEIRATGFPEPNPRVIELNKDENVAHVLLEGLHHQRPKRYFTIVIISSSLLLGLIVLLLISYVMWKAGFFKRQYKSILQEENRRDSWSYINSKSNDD
T1 sequence (P05556 21-798): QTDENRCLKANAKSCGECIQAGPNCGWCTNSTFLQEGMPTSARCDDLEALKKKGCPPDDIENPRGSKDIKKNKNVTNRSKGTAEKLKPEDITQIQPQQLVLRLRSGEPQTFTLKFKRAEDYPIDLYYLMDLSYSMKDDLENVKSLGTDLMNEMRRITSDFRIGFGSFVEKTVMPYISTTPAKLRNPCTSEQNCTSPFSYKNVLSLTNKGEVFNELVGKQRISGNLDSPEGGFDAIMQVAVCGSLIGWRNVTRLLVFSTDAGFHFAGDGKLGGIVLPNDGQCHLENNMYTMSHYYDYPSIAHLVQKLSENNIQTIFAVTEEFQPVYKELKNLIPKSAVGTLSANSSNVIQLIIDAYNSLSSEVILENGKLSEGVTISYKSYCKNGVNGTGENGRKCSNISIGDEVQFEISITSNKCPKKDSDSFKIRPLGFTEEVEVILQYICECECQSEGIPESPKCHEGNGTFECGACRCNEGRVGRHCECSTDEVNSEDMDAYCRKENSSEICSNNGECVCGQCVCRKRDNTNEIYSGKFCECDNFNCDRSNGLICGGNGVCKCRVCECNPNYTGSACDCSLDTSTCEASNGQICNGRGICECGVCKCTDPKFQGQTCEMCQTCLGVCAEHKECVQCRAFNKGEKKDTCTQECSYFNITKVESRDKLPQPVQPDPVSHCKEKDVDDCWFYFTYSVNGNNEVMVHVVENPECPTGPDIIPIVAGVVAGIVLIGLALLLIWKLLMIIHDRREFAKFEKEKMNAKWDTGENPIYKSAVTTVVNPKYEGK

**Q.** With CC1(c2ccc(C(=N)N)cc2)C(=O)N(CC(=O)NC[C@H](NC(=O)NCc2ccccc2)C(=O)O)C(=O)N1Cc1ccccc1 (stereo partly drawn) [Example 3, (S)-3-(((R,S)-4-(4-(Amino-imino-methyl)phenyl)-3-benzyl-4-methyl-2,5-dioxoimidazolidin-1-yl)acetylamino)-2-benzylaminocarbonylaminopropionic acid] as the compound, how does the IC50 read?
**A.** 11.5 µM

**Q.** How did the IC50 turn out when CC(C)[C@H](NC(=O)[C@H](CC(=O)O)N(C)C(=O)CN1C(=O)N(Cc2ccc3ccccc3c2)C(C)(c2ccc(C(=N)N)cc2)C1=O)C(=O)N1CCOCC1 (stereo partly drawn) [Example 5, ((R,S)-4-(4-(Amino-imino-methyl)phenyl)-3-(2-naphthylmethyl)-4-methyl-2,5-dioxoimidazolidin-1-yl)acetyl-L-(N-methylaspartyl)-L-valine morpholide] was run?
**A.** 0.73 µM

**Q.** CC1(c2ccc(C(=N)N)cc2)C(=O)N(CC(=O)NC[C@H](NC(=O)OCC23CC4CC(CC(C4)C2)C3)C(=O)O)C(=O)N1Cc1ccccc1 (stereo partly drawn) [Example 1, (S)-3-(((R,S)-4-(4-(Amino-imino-methyl)phenyl)-3-benzyl-4-methyl-2,5-dioxoimidazolidin-1-yl)acetylamino)-2-(1-adamantylmethyloxy-carbonylamino)propionic acid] was tested. Which IC50 did it give?
**A.** 1.25 µM

**Q.** For CC1(c2ccc(C(=N)N)cc2)C(=O)N(CC(=O)NC[C@H](NC(=S)NCc2ccccc2)C(=O)O)C(=O)N1Cc1ccccc1 (stereo partly drawn) [Example 4, (S)-(((R,S)-4-(4-(Amino-imino-methyl)phenyl)-3-benzyl-4-methyl-2,5-dioxoimidazolidin-1-yl)acetylamino)-2-benzylaminothiocarbonylamino-propionic acid], which IC50 is on record?
**A.** 10.5 µM
